In patent US20100248390A1, “COMPOSITIONS AND METHODS FOR IDENTIFYING LIGANDS OF ODORANT RECEPTORS” (DUKE UNIVERSITY, priority 2009, published 2010):
Read-outs that look alike come from different tables or passages of the source.

Columns and labels:
Experiment in all cases: CRE-luciferase assay of odorant receptor activation (Dual-Glo, Hana3A cells, RTP1S), dose-response EC50
Assay type in all cases: cell-based
[1] = test system: mouse odorant receptors (ORs); settings: for log EC50 (Table 4 value), MOR271-1 / log EC50, MOR271-1: receptor MOR271-1
Source text: (§1) Cloning mouse and human ORs. […] OR open reading frames were amplified from genomic DNA using proofreading KOD DNA polymerase (Toyobo/Novagen) and subcloned into pCI expression vectors (Promega) containing the first 20 residues of human rhodopsin (Rho tag). The sequences of the cloned receptors were verified by sequencing (3100 Genetic Analyzer, ABI Biosystems). Immunocytochemistry and FACS analysis. […] For FACS analysis, phycoerythrin (PE)-conjugated anti-mouse IgG (Jackson Immunologicals) was used. In order to monitor the transfection efficiency, Green Fluorescent Protein (GFP) was co-transfected with the OR. The intensity of receptor cell surface expression was calculated as the ratio of PE and GFP expression. 7-aminoactinomycin D (Calbiochem) was added before flow cytometry to mark dead cells which were excluded from the analysis. The gate and mean of PE positive cells was normalized by GFP values. Luciferase assay. […] Odorant receptor activation leads to an increase in intracellular cAMP; CRE-luciferase (Stratagene) was used to measure this change. […] Hana3A cells were plated on poly-D-lysine-coated 96-well plates (BioCoat; Becton Dickinson). […] For each 96-well plate transfected, 1 μg of CRE-Luc, 1 μg of pRL-SV40, 5 μg of odorant receptor plasmid, and 1 μg of RTP1S was used. Approximately 24 hours post transfection, the medium was replaced with CD293 chemically defined medium (Gibco) and the plate was incubed for 30 min at 37° C. The medium was then replaced with 25 μL of odorant solution diluted in CD293 and the plate was incubated for 4 hrs at 37° C. and 5% CO2. The manufacturer's protocols for measuring luciferase and Renilla luciferase activities was followed. […] All luminescence values were divided by the Renilla Luciferase activity to control for transfection efficiency in a given well. Normalized luciferase activity was calculated using the formula (LN−Lmin)/(Lmax−Lmin), where LN is the luminescence of firefly luciferase in response to the odorant, Lmin is the minimum luciferase value on a plate or set of plates, and Lmax is the maximum luciferase value on a plate or set of plates. The data was analyzed using Microsoft Excel and GraphPad Prism 4. Screening procedure. The entire OR library was stimulated with eight separate odorant mixtures formed from 93 odorants (FIG. 12). […] A comparison between the 93 individual odorants at a 100 μM dose and a no-odor control was performed for all 290 […]. Each comparison was performed in triplicate; statistical significance was assessed by t-test (uncorrected for multiple comparisons). […] A single odorant was used on each plate to avoid cross-contamination, and each OR odorant dose was tested at least three times. The data was fit to a sigmoidal curve. […] Physicochemical descriptors. […] Receptor descriptors. […] Correlations between descriptors and responses. […] All odorants for which there were fewer than 3 responsive receptors were eliminated. For all remaining odorant pairs the Pearson correlation between EC50 vectors and the Euclidean distance between descriptor vectors was calculated. The Pearson correlation between these two sets of distances was then measured. Optimizing descriptors. […] In this method one begins with an empty set of descriptors. Each descriptor is combined with the previous set of descriptors and correlation values are computed for all of these candidate sets of descriptors. To reduce overfitting, the data is randomly divided into ten subsets and correlation values are computed for each leave-one out subset. The final correlation coefficient for each set of descriptors is the average of the correlation coefficients for each subset. The set with the best correlation coefficient then becomes the new set of descriptors and the process is repeated until the correlation coefficient increases by less than 0.004 in three consecutive iterations.

[2] = target: T1, mouse odorant receptors (ORs) (Mus musculus, UniProt P23275)
T1 construct: OR open reading frames were amplified from genomic DNA; expressed in transfected cells; host or cells: Hana3A cells, co-transfected with RTP1S, CRE-luciferase and pRL-SV40
T1 sequence (P23275 1-312): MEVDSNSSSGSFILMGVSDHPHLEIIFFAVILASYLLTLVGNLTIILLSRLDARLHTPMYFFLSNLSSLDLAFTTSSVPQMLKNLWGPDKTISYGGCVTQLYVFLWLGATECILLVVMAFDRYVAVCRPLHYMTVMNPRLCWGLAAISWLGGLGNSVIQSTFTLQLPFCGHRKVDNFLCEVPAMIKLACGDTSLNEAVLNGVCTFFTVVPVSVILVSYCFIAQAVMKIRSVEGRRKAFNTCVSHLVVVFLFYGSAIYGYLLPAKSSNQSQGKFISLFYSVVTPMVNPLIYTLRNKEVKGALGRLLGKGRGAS
Source text: as §1

[3] = target: T2, human odorant receptors (ORs) (Homo sapiens, UniProt Q9Y3N9)
T2 construct: OR open reading frames were amplified from genomic DNA; expressed in transfected cells; host or cells: Hana3A cells, co-transfected with RTP1S, CRE-luciferase and pRL-SV40
T2 sequence (Q9Y3N9 1-320): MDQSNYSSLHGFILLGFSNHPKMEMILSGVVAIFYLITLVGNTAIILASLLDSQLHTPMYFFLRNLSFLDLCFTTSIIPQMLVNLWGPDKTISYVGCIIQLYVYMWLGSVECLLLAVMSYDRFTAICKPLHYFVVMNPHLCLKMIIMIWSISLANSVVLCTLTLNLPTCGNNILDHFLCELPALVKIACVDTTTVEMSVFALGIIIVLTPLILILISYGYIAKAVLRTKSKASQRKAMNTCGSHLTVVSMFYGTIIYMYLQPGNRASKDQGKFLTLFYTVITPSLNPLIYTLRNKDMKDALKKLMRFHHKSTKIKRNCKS
Source text: as §1, with “For all remaining odorant pairs the Pearson correlation between EC50 vectors and the Euclidean distance between descriptor vectors was calculated.” left out, “subset.” for “subset. The set with the best correlation coefficient then becomes the new set of descriptors and the process is repeated until the correlation coefficient increases by less than 0.004 in three consecutive iterations.”
(§2) The entire OR library was stimulated with one of 8 odorant mixtures drawn from 93 odorants chosen to represent diverse functional groups, sizes, and structures (Table 3). Each mixture was applied at five different concentrations. […] The 93 odorants were then applied individually at 100 μM to the 290 mixture-responsive ORs.

[4] = target: T3, human odorant receptors (ORs) (Homo sapiens, UniProt Q9P1Q5)
T3 construct: OR open reading frames were amplified from genomic DNA; expressed in transfected cells; host or cells: Hana3A cells, co-transfected with RTP1S, CRE-luciferase and pRL-SV40
T3 sequence (Q9P1Q5 1-309): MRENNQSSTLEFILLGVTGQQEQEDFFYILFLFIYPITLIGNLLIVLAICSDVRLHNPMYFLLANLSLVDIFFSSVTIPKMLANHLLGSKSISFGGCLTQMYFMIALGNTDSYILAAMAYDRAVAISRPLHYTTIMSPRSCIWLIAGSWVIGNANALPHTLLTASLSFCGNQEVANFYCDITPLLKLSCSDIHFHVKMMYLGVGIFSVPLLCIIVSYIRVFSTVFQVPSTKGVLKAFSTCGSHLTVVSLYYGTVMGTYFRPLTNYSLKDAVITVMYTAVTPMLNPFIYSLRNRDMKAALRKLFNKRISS
Source text: as §1, with “For all remaining odorant pairs the Pearson correlation between EC50 vectors and the Euclidean distance between descriptor vectors was calculated.” left out, “subset.” for “subset. The set with the best correlation coefficient then becomes the new set of descriptors and the process is repeated until the correlation coefficient increases by less than 0.004 in three consecutive iterations.”
as §2

[5] = receptor OR1A1, read-out: log EC50 (Table 4 value), OR1A1 (converted)
[6] = receptor MOR203-1, 0 = no response
[7] = receptor MOR272-1, 0 = no response
[8] = receptor OR2W1, 0 = no response, read-out: log EC50, OR2W1 (converted)
[9] = receptor OR1A1, 0 = no response, read-out: log EC50, OR1A1 (converted)
[10] = receptor MOR41-1, 0 = no response

Structure (SMILES): C=CCc1ccccc1 [Allyl benzene]
- log EC50 (Table 4 value), MOR105-1 ([1]; receptor MOR105-1): −3.332
- log EC50 (Table 4 value), MOR106-1 ([1]; receptor MOR106-1): −3.921
- EC50 [2]: 71.4 µM

Structure (SMILES): CCCCCC(=O)CC [3-Octanone]
- log EC50 (Table 4 value), MOR203-1 ([1]; receptor MOR203-1): −4.4
- log EC50 (Table 4 value), MOR271-1 [1]: −4.139
- log EC50 (Table 4 value), MOR272-1 ([1]; receptor MOR272-1): −4.197
- EC50 ([3]; receptor OR2W1, read-out: log EC50 (Table 4 value), OR2W1 (converted)): 9.55 µM
- EC50 [4, 5]: 5.12 µM

Structure (SMILES): CCCCC(=O)CC [3-Haptonone]
- log EC50, MOR203-1 [1, 6]: −4.099
- log EC50, MOR271-1 ([1]; 0 = no response): −5.235
- log EC50, MOR272-1 [1, 7]: −5.221
- EC50 [3, 8]: 33.3 µM
- EC50 [4, 9]: 19.4 µM

Structure (SMILES): CCCCCC(C)=O [2-Haptonone]
- log EC50, MOR203-1 [1, 6]: −4.76
- log EC50, MOR271-1 ([1]; 0 = no response): −4.581
- log EC50, MOR272-1 [1, 7]: −5.073
- EC50 [3, 8]: 7.21 µM
- EC50 [4, 9]: 39.9 µM

Structure (SMILES): CCC(=O)C(=O)CC [34-Hexanedione]
- log EC50 (Table 4 value), MOR41-1 ([1]; receptor MOR41-1): −4.692
- log EC50 (Table 4 value), MOR271-1 [1]: −4.734
- EC50 [2]: 12 µM
- EC50 [3]: 16.6 µM

Structure (SMILES): CCCC(=O)C(C)=O [23-Haxanedione]
- log EC50, MOR41-1 [1, 10]: −5.008
- log EC50, MOR271-1 ([1]; 0 = no response): −4.824
- EC50 ([2]; receptor MOR256-17, 0 = no response, read-out: log EC50, MOR256-17 (converted)): 14.5 µM
- EC50 [3, 8]: 434 µM

Structure (SMILES): CCCCCCCC(C)=O [2-Noranone]
- log EC50, MOR203-1 [1, 6]: −5.064
- EC50 [3, 8]: 19.9 µM
- EC50 [4, 9]: 265 µM

Structure (SMILES): CCCCCCCCC=O [Nonanal]
- log EC50 of odorant at MOR30-1 (0 = no response) ([1]; receptor MOR30-1): −3.914
- log EC50 of odorant at MOR33-1 (0 = no response) ([1]; receptor MOR33-1): −3.234
- log EC50 of odorant at MOR37-1 (0 = no response) ([1]; receptor MOR37-1): −3.295
- log EC50 of odorant at MOR40-1 (0 = no response) ([1]; receptor MOR40-1): −3.194
- EC50 ([3]; receptor OR2W1, read-out: log EC50 of odorant at OR2W1 (0 = no response) (converted)): 252 µM

Structure (SMILES): CCCCCCC(C)=O [2-Octanone]
- log EC50, MOR203-1 [1, 6]: −5.023
- log EC50, MOR272-1 [1, 7]: −4.575
- EC50 [3, 8]: 39.9 µM
- EC50 [4, 9]: 42.7 µM

Structure (SMILES): O=C(c1ccccc1)c1ccccc1 [Benzophenone]
- log EC50 (Table 4 value), MOR162-1 ([1]; receptor MOR162-1): −3.685
- log EC50 (Table 4 value), MOR259-1 ([1]; receptor MOR259-1): −4.442
- log EC50 (Table 4 value), MOR269-1 ([1]; receptor MOR269-1): −3.652
- EC50 [3]: 28.8 µM
- EC50 [4]: 98.2 µM

Structure (SMILES): C=CCOC(=O)CCCCCC [Allyl heptanoate]
- EC50 [4, 5]: 475 µM

Structure (SMILES): O=C1Cc2ccccc2O1 [2-Counpronon ?]
- log EC50, MOR1-1 ([1]; receptor MOR1-1, 0 = no response): −4.138
- log EC50, MOR41-1 [1, 10]: −3.96
- log EC50, MOR139-1 ([1]; receptor MOR139-1, 0 = no response): −3.585
- log EC50, MOR258-1 ([1]; receptor MOR258-1, 0 = no response): −4.268
- log EC50, MOR259-1 ([1]; receptor MOR259-1, 0 = no response): −3.63
- log EC50, MOR256-17 ([2]; receptor MOR256-17, 0 = no response): −4.575
